Experiment: Human HepG2 cell viability assay in 384 well format
Assay type: toxicity, cell-based
Design: dose 125 nL, time 70.5 hour; cytotoxicity at 70.5 h: concentration not given beside the values
Conditions: HepG2 cells, read-out: Inhibition

Row | SMILES | cytotoxicity at 70.5 h [%]
1 | OC1CCN(CCCNc2nccc(C3CCCC3)n2)CC1 | -2.73
2 | CC(=O)N1CCN(Cc2ccc(F)c(C(F)(F)F)c2)CC(O)C1 (stereo unspecified) | -8.55
3 | CCOCCCNC(=O)C1CCC(=O)N(CCc2ccc(Cl)cc2)C1 (stereo unspecified) | -7.25
4 | CCN1CCN(C(=O)c2cc(C(F)(F)F)n[nH]2)[C@H]2CS(=O)(=O)C[C@H]21 | -18.6
5 | Cc1cccc(=O)n1CCC(=O)N1CC[C@@](O)(C2CCC2)[C@H](C)C1 | -9.83
6 | O=C1CCC(C(=O)N2CCOC(Cc3cccc4ccccc34)C2)=NN1 (stereo unspecified) | 18.7
7 | CCOC(=O)CC1CCCCN1C(=O)c1cccc2ccnn12 (stereo unspecified) | -6.11
8 | CC(=O)Nc1ccc(CN(C)Cc2snnc2C)cc1 | -5.27
9 | Cc1c[nH]c(CN(C)C(=O)CCn2cnc3ccccc32)n1 | -1.23
10 | COc1ccc(/C=C/CN2C[C@H]3CC[C@@H]2CN(S(=O)(=O)N(C)C)C3)cc1 | -5.26
11 | Cc1cc(C(=O)N2CC(O)CO2)c2ccc(C)c(C)c2n1 (stereo unspecified) | -6.82
12 | Cn1nnnc1SCCNC(=O)C1CCN(C(=O)C2CCC2)CC1 | -5.55
13 | Fc1ccc2[nH]c(C3CCCN3Cc3c[nH]cn3)nc2c1 (stereo unspecified) | 28.4
14 | COc1cccc(Cn2ncnc2COC(C)C)c1 | -15.5
15 | CCOC(=O)CCNC(=O)N1CCCC(CNC(=O)c2cccs2)C1 (stereo unspecified) | -6.29
16 | COc1ccc2[nH]nc(CN3CCC(C(C)N4CCCC4)CC3)c2c1 (stereo unspecified) | -1.99
17 | COCC(Nc1ncnc2c1CCNCC2)c1ccccn1 (stereo unspecified) | -12.5
18 | Cc1nn(C)c2nc(N(CCN(C)C)CC3CCCO3)sc12 (stereo unspecified) | -7.79
19 | CCCc1cc(C(=O)NCCC2=CCCCC2)[nH]n1 | -9.53
20 | O=C1NCCN1CCNCC1(O)CCCN(CCC2CCCCC2)C1=O (stereo unspecified) | -4.14
21 | CCCn1cc(C(=O)N[C@H]2CC[C@H](n3cnnc3)CC2)c(C)n1 | 0.742
22 | COc1ccc2cc(CN(C)CCc3cn[nH]c3)c(=O)[nH]c2c1 | -6.43
23 | CC(O)c1cccc(-n2c(CCC(=O)O)nc3ccccc32)c1 (stereo unspecified) | -8.25

Row | SMILES | cytotoxicity at 70.5 h [%]
24 | COc1nc2ccn(CCNc3cc(C)ccn3)c(=O)c2cc1C#N | -3.78
25 | CC(C)CCN(C)C(=O)c1cc(CN2CCC(O)CC2)on1 | -0.516
26 | Cc1nc[nH]c1CN1CCN(C(=O)CN2CCCC2)[C@H]2CS(=O)(=O)C[C@H]21 | 3.25
27 | COCc1nc(CNC(=O)c2cc(C)c(C)[nH]c2=O)no1 | 2.71
28 | CCc1nccn1CCC(=O)N1CCN(c2ccccc2C)CC1C (stereo unspecified) | -10.2
29 | CCCN1CCN(C(=O)c2cc3ccccc3cn2)[C@H]2CS(=O)(=O)C[C@H]21 | -12
30 | COCc1ccc(C(=O)N2CCC(Oc3ccccc3OC)CC2)s1 | -15
31 | CC(C)CN1CCc2[nH]cnc2C12CCN(C(=O)c1ccnn1C)CC2 | -2.45
32 | Cc1nc(CC(=O)N2CCN(CCOc3ccccc3)CC2)cs1 | -10.1
33 | c1ccc(CN2CCC(CCNc3ncnc4c3CCNCC4)C2)cc1 (stereo unspecified) | -2.61
34 | CCCN1C(=O)[C@H]2CC[C@@H]1CN(S(=O)(=O)c1cccc(Cl)c1)C2 | -9.33
35 | CC(C)c1ccc(C#N)c(N2CC(C)(C)[C@@](C)(O)C2)n1 | -17.8
36 | C[C@@H]1CN(C2CCN(Cc3nn(C)c4cccc(Cl)c34)CC2)C[C@H](C)O1 | 25.7
37 | CC[C@@]1(O)CCN(C(=O)CCc2cnn(C)c2)C[C@H]1O | -9.56
38 | Cc1n[nH]c(C)c1CN(C)C(C(=O)O)c1ccc2c(c1)OCO2 (stereo unspecified) | 6.84
39 | CC(=O)c1ccc(NC(=O)N(CCN(C)C)Cc2ccc(C)s2)cc1 | 2.42
40 | CCNc1ncc(C(=O)N(C)Cc2nc3ccccc3n2C)cn1 | -2.99
41 | CC(c1ccccc1)n1c(SCC(=O)O)nnc1-c1ccn[nH]1 (stereo unspecified) | -5.88
42 | O=C(O)C1(Oc2ccc3c(c2)OCO3)CCN(C2CCOCC2)CC1 | -14.1
43 | CC(C)(C)c1noc(-c2nc3c([nH]2)CCCNC3=O)n1 | -4.9
44 | CCCC1COCCN1Cc1ccc(NC(C)=O)cc1 (stereo unspecified) | -3.46
45 | CCNC(=O)[C@@H]1C[C@@H](NC(=O)c2ccc(C)cc2O)CN1CCCSC | -3.38
46 | Cc1cc2cccc(C(=O)N3CCOC4(CNCCOC4)C3)c2o1 (stereo unspecified) | 32.7

Row | SMILES | cytotoxicity at 70.5 h [%]
47 | CCn1nc(C)c(CCNC(=O)C2CCCN(C3CCCC3)C2)c1C (stereo unspecified) | 20.4
48 | COc1cccc(N2CCN(CC[C@H](O)c3ccccc3)CC2=O)c1 | -10.7
49 | CCCC1CCN(C(=O)c2coc(COc3ccc(OC)cc3)n2)C1 (stereo unspecified) | -3.1
50 | O=C(Cn1ccnc1)N1CCC(n2cc(-c3cccc(Cl)c3)nn2)CC1 | 22.5
51 | CCCc1nnc(N2CC[C@](C)(O)[C@H](C)C2)s1 | 8.74
52 | COCCC(=O)N[C@H]1CN(c2nc(C)c3c(n2)CCCC3)C[C@@H]1C1CC1 | -9.64
53 | CCC(C(=O)N1CCN(C(=O)N2CCOCC2)CC1)n1cccn1 (stereo unspecified) | -5.93
54 | Cc1c(CN2CC[C@@H](N3CCC(O)CC3)[C@H](O)C2)[nH]c2ccc(F)cc12 | -2.56
55 | CCn1c(CN(C)C)nnc1C1CCN(Cc2cnc(C)nc2)CC1 | -5.5
56 | Cc1cccc(-n2ncc3c2CCCC3NCc2cccc(O)c2)c1C (stereo unspecified) | -3.55
57 | Cc1ccsc1-c1nccn1CCN(C)S(C)(=O)=O | -1.88
58 | Cc1ccc2c(c1)SCC(=O)N2CC(=O)N1CCCC1c1nccs1 (stereo unspecified) | -14
59 | O=C(c1cccnc1O)N1CCCC2(C=Cc3ccccc3O2)CC1 (stereo unspecified) | -4.51
60 | CNc1ncc(CN(C)C(=O)c2c[nH]nc2-c2cccc(F)c2)cn1 | -6.7
61 | CC(C)N1CCC(C(=O)N2CCC(C(O)c3nccn3C)CC2)CC1 (stereo unspecified) | -11.2
62 | CCOCc1nc(CSc2ccncc2)n(C)n1 | 6.25
63 | CCOC(=O)N1CCN(C(=O)C2Cc3ccccc3CN2C)CC1 (stereo unspecified) | 2.75
64 | O=C1CC2(CCCC2)CC(=O)N1Cc1ncccn1 | 19.8
65 | CCc1oc(C(=O)N2CCC(N(CC)C(C)=O)C2)cc1CN(CC)CC (stereo unspecified) | -12.3
66 | Cc1nc(C)n(CC(C)C(=O)N2CCC(NS(C)(=O)=O)CC2)n1 (stereo unspecified) | 34.2
67 | CC(C)CS(=O)(=O)CCNC(=O)Nc1cccc2ncccc12 | 19.9
68 | COc1ccc(C(=O)C2CCCN(Cc3ccccc3O)C2)c(OC)c1 (stereo unspecified) | 35.7
69 | COc1cc(C)c(CN2CCC3(CC2)[C@H](O)C[C@@H]3OCCN)cc1C | 28.1

Row | SMILES | cytotoxicity at 70.5 h [%]
70 | Cc1ccsc1CN(CCN(C)C)C(=O)c1ccccc1C#N | -0.2
71 | CCN1CCCC(c2c(-c3ccccc3)ncn2CCCO)C1 (stereo unspecified) | -8.57
72 | CCn1c(C)nnc1SCCNc1cc(N2CCOCC2)ncn1 | -18.8
73 | CC(Cc1ccccn1)N(C)Cc1ccc2c(c1)CCO2 (stereo unspecified) | -8.85
74 | CCc1cc(CN(C)C(=O)C2CC(=O)N(c3cccc(O)c3)C2)on1 (stereo unspecified) | -1.3
75 | COCCC1(CO)CCCN(CCCc2ccccc2)C1 (stereo unspecified) | 22.6
76 | O=C(c1csc(-c2ccc(C(F)(F)F)cc2)n1)N1CCCNCC1 | -2.7
77 | CCC[C@@H]1CN(C(=O)c2ccccc2-c2ccccc2)C[C@H]1N(C)C | 0.165
78 | CN(C)c1nc2c(c(NCc3cc(O)ncn3)n1)CCCC2 | -4.94
79 | CC(C)Nc1cc(N2CCC(n3cc(C4CC4)nn3)CC2)ncn1 | 23.9
80 | Cc1cccc(CN2CCCC3(CCN(C4CCSCC4)C3)C2=O)c1 (stereo unspecified) | 7.94
81 | Cc1nc(CN2CCCCC2CCc2ccc(O)cc2)no1 (stereo unspecified) | 6.16
82 | Cc1ccccc1C1CCCN(C(=O)c2c[nH]c(=O)c(Cl)c2)C1 (stereo unspecified) | -12
83 | O=C(O)C(c1ccc2[nH]ccc2c1)N1CCOCC1 (stereo unspecified) | 9.07
84 | Cc1ccsc1CNc1ccccc1C(=O)N1CCNC(=O)C1 | 16.9
85 | O=S(=O)(c1cccc(F)c1)N1C[C@@H]2CC[C@H](C1)N(Cc1ccccc1)C2 | -12.7
86 | CCN1CC(C(=O)N(C)Cc2cc3cc(F)ccc3[nH]2)CC1=O (stereo unspecified) | -0.954
87 | CC(C)Oc1ccc(CN2CCCC(N3CCCC3)C2)cc1CO (stereo unspecified) | 2.77
88 | O=C(c1ccc2cccc(F)c2n1)N1CCN(CCn2cccc2)CC1 | 9.26
89 | O=C(c1ccc(-c2cccc3c2CCNC3)o1)N1CCOCC1 | -6.54
90 | Cc1csc2ncn(C(C)Cc3cccnc3)c(=O)c12 (stereo unspecified) | -4.53
91 | O=c1[nH]c(-c2ccc(F)c(F)c2)nc2c1CCNC2 | -1.92
92 | COCCCC1(CO)CCCN(CCc2ccccn2)C1 (stereo unspecified) | 0.702

Row | SMILES | cytotoxicity at 70.5 h [%]
93 | COc1cnc(N2CCCN(c3ccc(F)cc3)CC2)nc1 | 8.19
94 | CN(Cc1n[nH]c(=O)n1Cc1ccco1)S(C)(=O)=O | 2.27
95 | NC(=O)c1csc(N2C[C@@H](CN3CCCCC3)[C@@H](CO)C2)n1 | -6.7
96 | Cc1cc(CN(C)C(=O)C(c2ccccc2C)N(C)C)on1 (stereo unspecified) | -6.35
97 | CCCN(Cc1cccnc1)C(=O)C1CCCN(C)C1 (stereo unspecified) | 2.68
98 | Cc1nc[nH]c1CN1CCC(C2CCN(CCc3ccccc3)C2)CC1 (stereo unspecified) | -1.67
99 | Cc1ccc(C(=O)N[C@H]2CN(CCO)C[C@@H]2C2CC2)cc1Cl | 1.11
100 | CCc1cc(N2CC(N3CCCCC3C)C2)n2nccc2n1 (stereo unspecified) | 6.74
101 | C=C(C)COc1cccc(C(=O)N(CC)Cc2noc(C)n2)c1 | -3.04
102 | COc1ccc(-c2n[nH]cc2CN(C)Cc2nonc2C)c(F)c1 | -3.77
103 | CCC[C@@H]1CN(Cc2cc(C#N)n(C)c2C)C[C@H]1NS(C)(=O)=O | -6.42
104 | CCc1cnc(N)nc1NCCCN1CCCCC1CO (stereo unspecified) | -8.8
105 | COCCn1ccnc1C1CCCN(c2cc(OC)nc(N)n2)C1 (stereo unspecified) | 31.1
106 | Cc1nccn1CCN(C)c1cc(C(C)C)nc2ccnn12 | -2.26
107 | Nc1ccnc(-c2cc(NC3CCNCC3)nc3[nH]ccc23)c1 | -3.27
108 | Cc1ccc(-n2c(COCC(=O)O)nc3c(C)cccc32)nc1 | -4.5
109 | COCc1nc(NC(C)Cc2cc(C)n[nH]2)c2cnn(C)c2n1 (stereo unspecified) | -0.0562
110 | CCC(NC(=O)c1cc(CC(C)C)nn1C)c1cc(C)ccn1 (stereo unspecified) | -19.2
111 | Cc1ccc(S(=O)(=O)N2CCN(C)C3(CCC(=O)N(C)CC3)C2)s1 (stereo unspecified) | -5.58
